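48-hour exposure; five concentrations; linearly interpolated endpoints. The concentration for 50% growth inhibition is given as GI50. TGI: total growth inhibition.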 The source made the active and inactive calls. Cut-off read from the data, not from the text of the source: active = GI50 below about 0.43 µM; inactive = the rest.

Among the test systems are HT29 colon; LXFL 529 NSCLC; 786-0 renal; RXF 393 renal; SK-MEL-2 melanoma; OVCAR-4 ovarian; OVCAR-5 ovarian; XF 498 CNS; DU-145 prostate.
What all share (assay): DTP human tumour cell line panel, 48 h

For the compound `COC1=CC2(C=CC1=O)c1cc(OC)c(OC)cc1CCN2C(=O)c1ccccc1` (configuration not stated), the TGI in the experiment with HT29 colon, in the experiment on LXFL 529 NSCLC, with 786-0 renal and in the experiment with RXF 393 renal was over 100 µM in each case.
On to `CCCCCCC(=O)C/C(=N/NC(N)=S)C(=O)NC1C2CC3CC(C2)CC1C3` (configuration not stated), for which the TGI in the experiment with SK-MEL-2 melanoma, in the experiment with OVCAR-4 ovarian, with HT29 colon, in the experiment on LXFL 529 NSCLC, in the experiment on 786-0 renal and with OVCAR-5 ovarian was over 100 µM in each case. The compound further registered a TGI in the experiment with RXF 393 renal of over 100 µM.
Turning to `N.N.O=C([O-])P(=O)([O-])[O-].[Na+].[Pt+4]`, the GI50 with SK-MEL-2 melanoma, with OVCAR-4 ovarian, with LXFL 529 NSCLC, with 786-0 renal and in the experiment on RXF 393 renal was over 100 µM in each case. Also, the TGI with SK-MEL-2 melanoma, in the experiment on OVCAR-4 ovarian, in the experiment with LXFL 529 NSCLC, with 786-0 renal and in the experiment with RXF 393 renal was over 100 µM each time.
In the case of `Cc1nc2ccccc2c(=O)n1-c1ccccc1F`, the TGI in the experiment with SK-MEL-2 melanoma, with OVCAR-4 ovarian, in the experiment on HT29 colon, with LXFL 529 NSCLC, with 786-0 renal and in the experiment on OVCAR-5 ovarian was over 100 µM throughout. For the same compound, the concentration for total growth inhibition (TGI) in the experiment with RXF 393 renal was over 100 µM.
`CC(C)c1ccc(C(c2ccc(OCC(=O)O)cc2)c2ccc(C(C)C)cc(=O)c2O)c(O)c(=O)c1`: the TGI in the experiment on OVCAR-4 ovarian is 12.8 µM; with HT29 colon, over 100 µM; with LXFL 529 NSCLC, over 100 µM; with 786-0 renal it was 22 µM; in the experiment with XF 498 CNS it was 9.95 µM; in the experiment with RXF 393 renal, 27.2 µM.
As to `Cc1ccc2c(c1)CN(C(=O)CCC(=O)OCc1ccccc1)c1ccc(C)cc1CN2C(=O)CCC(=O)OCc1ccccc1`, the TGI in the experiment on SK-MEL-2 melanoma, with OVCAR-4 ovarian, in the experiment on HT29 colon, with LXFL 529 NSCLC, with 786-0 renal and in the experiment on OVCAR-5 ovarian was over 100 µM each time. Also, the TGI in the experiment on RXF 393 renal and in the experiment on DU-145 prostate was over 100 µM in each case.
In the case of `CC(=O)O.[Au].c1ccc([PH+](c2ccccc2)c2ccccc2)cc1`, the GI50 in the experiment on SK-MEL-2 melanoma was 3.24 µM; in the experiment with OVCAR-4 ovarian it was 2 µM; with HT29 colon it was 11.5 µM; in the experiment on LXFL 529 NSCLC it was 1.57 µM; in the experiment with 786-0 renal, 1.67 µM; with OVCAR-5 ovarian, 14.4 µM. Further, the GI50 in the experiment with RXF 393 renal is 1.42 µM. The TGI in the experiment with SK-MEL-2 melanoma was found to be 8.47 µM; with OVCAR-4 ovarian, 5.02 µM; with HT29 colon, 32.5 µM; in the experiment with LXFL 529 NSCLC it was 2.92 µM; with 786-0 renal, 3.27 µM; in the experiment with OVCAR-5 ovarian it was 28.6 µM. The compound also displayed a TGI in the experiment with RXF 393 renal of 2.86 µM.
With `CCCS(=O)(=O)/C(=C(\c1ccc(Br)cc1)S(=O)(=O)CCC)c1ccc(Br)cc1`, the TGI in the experiment on SK-MEL-2 melanoma, in the experiment on OVCAR-4 ovarian, with HT29 colon, in the experiment with LXFL 529 NSCLC, with 786-0 renal and with OVCAR-5 ovarian was over 10 µM throughout. Further, the TGI with XF 498 CNS and in the experiment on RXF 393 renal was over 10 µM in each case.
In the case of `CC(=O)N1C/C(=C\c2ccc(N(C)C)cc2)C(=O)/C(=C/c2ccc(N(C)C)cc2)C1`, the TGI in the experiment on OVCAR-4 ovarian, with HT29 colon, with LXFL 529 NSCLC, in the experiment with 786-0 renal, in the experiment on OVCAR-5 ovarian and in the experiment with XF 498 CNS was over 100 µM in each case. The same compound registered a TGI with RXF 393 renal of over 100 µM.
For the compound `OC/C=C(\I)CCCOCOCc1ccccc1`, the TGI is 47.7 µM in the experiment on SK-MEL-2 melanoma; over 100 µM in the experiment with OVCAR-4 ovarian; over 100 µM in the experiment on HT29 colon; over 100 µM in the experiment on LXFL 529 NSCLC; over 100 µM in the experiment with 786-0 renal; over 100 µM in the experiment on OVCAR-5 ovarian. In addition, the figures for the TGI with XF 498 CNS and in the experiment on RXF 393 renal were 45.8 µM and 72.3 µM, respectively.
`CC1=N/C(=C\c2cccc([N+](=O)[O-])c2)C(=O)O1`: the TGI with SK-MEL-2 melanoma, with HT29 colon, in the experiment with LXFL 529 NSCLC, in the experiment on 786-0 renal, in the experiment with OVCAR-5 ovarian and with RXF 393 renal was over 100 µM throughout.
Regarding `C/C=C1/C(=C/c2[nH]c(/C=c3\[nH]/c(=C/C4=NC(=O)C(CC)=C4C)c(C)c3CCC(=O)O)c(CCC(=O)O)c2C)NC(=O)C1C` (configuration not stated), the GI50 in the experiment with SK-MEL-2 melanoma, with OVCAR-4 ovarian, with 786-0 renal, in the experiment with OVCAR-5 ovarian and with RXF 393 renal was over 150 µg/mL throughout. For the same compound, the concentration for total growth inhibition (TGI) with SK-MEL-2 melanoma, with OVCAR-4 ovarian, with 786-0 renal, with OVCAR-5 ovarian and in the experiment on RXF 393 renal was over 150 µg/mL each time. In addition, the result in the experiment with LXFL 529 NSCLC and in the experiment with XF 498 CNS was inactive.
For the compound `CC(C)c1cc2c(O)c(c1)Cc1cc(C(C)C)cc(c1O)Cc1cc(C(C)C)cc(c1O)Cc1cc(C(C)C)cc(c1O)C2`, the TGI in the experiment on SK-MEL-2 melanoma, with OVCAR-4 ovarian, in the experiment with HT29 colon, in the experiment with 786-0 renal, in the experiment on OVCAR-5 ovarian and with XF 498 CNS was over 100 µM in each case. The TGI with RXF 393 renal was over 100 µM.
Consider `N#CCC(=O)NC1C2CC3CC(C2)CC1C3` (configuration not stated), for which the TGI in the experiment on SK-MEL-2 melanoma was 55.7 µM; in the experiment on OVCAR-4 ovarian, 50.5 µM; with HT29 colon it was 33.1 µM; in the experiment with LXFL 529 NSCLC, over 100 µM; with 786-0 renal, 35.8 µM; with OVCAR-5 ovarian, 36.9 µM. In the experiment on RXF 393 renal, this compound came in with a TGI of 30.2 µM.
As for `N#CCc1ccc(C(C#N)/C(CCCC(=O)Nc2cccc([N+](=O)[O-])c2)=N/NC(N)=S)cc1` (configuration not stated), the TGI with SK-MEL-2 melanoma, with OVCAR-4 ovarian, with HT29 colon, with LXFL 529 NSCLC, in the experiment on 786-0 renal and in the experiment on OVCAR-5 ovarian was over 100 µM throughout. Also, in the experiment on RXF 393 renal, the TGI was over 100 µM.
`Fc1ccc(C2SCc3nc4ccccc4n32)cc1Cl` (configuration not stated): the TGI in the experiment with OVCAR-4 ovarian is over 100 µM; with HT29 colon, over 100 µM; in the experiment with LXFL 529 NSCLC it was 57.8 µM; in the experiment on 786-0 renal, over 100 µM; in the experiment on OVCAR-5 ovarian, 66.6 µM; with XF 498 CNS it was 31.7 µM. The compound also registered a TGI in the experiment with RXF 393 renal of 50 µM.
Regarding `COC(=O)c1cc(C)c(C)c2c1NC(=O)CNC2=O`, the TGI in the experiment with SK-MEL-2 melanoma, in the experiment with OVCAR-4 ovarian, in the experiment with HT29 colon, in the experiment with LXFL 529 NSCLC, in the experiment on 786-0 renal and in the experiment with XF 498 CNS was over 100 µM each time. Besides, the TGI in the experiment with RXF 393 renal was over 100 µM.
As for `Nc1ncn(C2CC(O)C(CO)O2)c(=O)n1` (configuration not stated), the TGI in the experiment on SK-MEL-2 melanoma is 232 µM; in the experiment with OVCAR-4 ovarian, over 375 µM; in the experiment with HT29 colon, over 375 µM; in the experiment with 786-0 renal, over 256 µM; with OVCAR-5 ovarian, over 375 µM; with XF 498 CNS, over 80.8 µM. The values for the TGI in the experiment with RXF 393 renal and in the experiment on DU-145 prostate were 350 µM and over 375 µM, respectively.
Consider `CN(C)C(c1ccccc1)C(O)c1ccccc1` (configuration not stated), for which the TGI with SK-MEL-2 melanoma, with HT29 colon, with LXFL 529 NSCLC, in the experiment on 786-0 renal, in the experiment with XF 498 CNS and with RXF 393 renal was over 100 µM throughout.
Take `CCCCOC(=O)NC(=O)c1cn(C2CCCCC2)c(=O)[nH]c1=O`: the TGI with SK-MEL-2 melanoma is over 100 µM; in the experiment on OVCAR-4 ovarian, 48.6 µM; with HT29 colon, over 100 µM; with LXFL 529 NSCLC it was 93 µM; with 786-0 renal it was 40.1 µM; in the experiment with OVCAR-5 ovarian it was over 100 µM. Moreover, the TGI in the experiment on XF 498 CNS was over 100 µM.
`COc1ccc(/C=C\c2cc(OC)c(OC)c(OC)c2)cc1OC(=O)NCCN(C)C`: the GI50 with HT29 colon is 0.348 µM. The TGI in the experiment on HT29 colon is 19.9 µM; with 786-0 renal it was over 34.8 µM; in the experiment on XF 498 CNS it was under 0.0001 µM; in the experiment with RXF 393 renal, under 0.0001 µM; in the experiment with DU-145 prostate it was 0.043 µM.
Turning to `COC(C(O)c1ccc2c(c1)OCO2)P(=O)(c1ccccc1)c1ccccc1` (configuration not stated), the TGI in the experiment with SK-MEL-2 melanoma is over 100 µM; with OVCAR-4 ovarian, 30.9 µM; with HT29 colon it was over 100 µM; with 786-0 renal it was over 100 µM; with OVCAR-5 ovarian, over 100 µM; in the experiment on XF 498 CNS, over 100 µM. For the same compound, the TGI in the experiment on RXF 393 renal was over 100 µM.
In the case of `c1cc[c]([Pb]([c]2ccccc2)[c]2ccccc2)cc1`, the GI50 in the experiment on SK-MEL-2 melanoma was 6.04 µM; in the experiment with OVCAR-4 ovarian, 22 µM; in the experiment with HT29 colon it was 16.4 µM; with LXFL 529 NSCLC it was 4.03 µM; in the experiment with 786-0 renal, 11.4 µM; with OVCAR-5 ovarian it was 11 µM. Moreover, in the experiment with XF 498 CNS, the GI50 is 23.9 µM. Besides, the total growth inhibition concentration (TGI) with SK-MEL-2 melanoma is 24 µM; in the experiment with OVCAR-4 ovarian, over 100 µM; in the experiment on HT29 colon it was 49.6 µM; with LXFL 529 NSCLC, 17.2 µM; in the experiment on 786-0 renal it was 33.2 µM; in the experiment on OVCAR-5 ovarian it was 34.9 µM. In addition, in the experiment on XF 498 CNS, the TGI was 42.7 µM.
In the case of `CCOc1ccc2c(c1)[n+]([O-])c(-c1nc3ccccc3s1)c(N)[n+]2[O-]`, the TGI with SK-MEL-2 melanoma, in the experiment on OVCAR-4 ovarian, in the experiment with HT29 colon, in the experiment with LXFL 529 NSCLC, in the experiment on 786-0 renal and in the experiment on OVCAR-5 ovarian was over 100 µM throughout. Further, the TGI in the experiment with XF 498 CNS worked out at 86.6 µM.

For the origin of these results see PubChem BioAssay (NCI).
